Here are results for five compounds from ChEMBL document CHEMBL1201862, “PubChem BioAssay data set” (2004).

The target of assay [1] is Tyrosyl-DNA phosphodiesterase 2 (Homo sapiens, UniProt O95551). Briefly: human TDP2 enzyme inhibitors, dose response, biochemical, epi absorbance, IC50 (AID 743297).
For another assay, the target named is Genome polyprotein (dengue virus type 2, UniProt P29990). Briefly: Dengue-2 NS5 methyltransferase inhibitors, primary screen, biochemical, confirmation dose response (AID 588689). It is filed as functional.
Another assay addresses T1, Aminopeptidase N (Plasmodium falciparum FcB1/Columbia, UniProt O96935).
T1 sequence (O96935 whole entry): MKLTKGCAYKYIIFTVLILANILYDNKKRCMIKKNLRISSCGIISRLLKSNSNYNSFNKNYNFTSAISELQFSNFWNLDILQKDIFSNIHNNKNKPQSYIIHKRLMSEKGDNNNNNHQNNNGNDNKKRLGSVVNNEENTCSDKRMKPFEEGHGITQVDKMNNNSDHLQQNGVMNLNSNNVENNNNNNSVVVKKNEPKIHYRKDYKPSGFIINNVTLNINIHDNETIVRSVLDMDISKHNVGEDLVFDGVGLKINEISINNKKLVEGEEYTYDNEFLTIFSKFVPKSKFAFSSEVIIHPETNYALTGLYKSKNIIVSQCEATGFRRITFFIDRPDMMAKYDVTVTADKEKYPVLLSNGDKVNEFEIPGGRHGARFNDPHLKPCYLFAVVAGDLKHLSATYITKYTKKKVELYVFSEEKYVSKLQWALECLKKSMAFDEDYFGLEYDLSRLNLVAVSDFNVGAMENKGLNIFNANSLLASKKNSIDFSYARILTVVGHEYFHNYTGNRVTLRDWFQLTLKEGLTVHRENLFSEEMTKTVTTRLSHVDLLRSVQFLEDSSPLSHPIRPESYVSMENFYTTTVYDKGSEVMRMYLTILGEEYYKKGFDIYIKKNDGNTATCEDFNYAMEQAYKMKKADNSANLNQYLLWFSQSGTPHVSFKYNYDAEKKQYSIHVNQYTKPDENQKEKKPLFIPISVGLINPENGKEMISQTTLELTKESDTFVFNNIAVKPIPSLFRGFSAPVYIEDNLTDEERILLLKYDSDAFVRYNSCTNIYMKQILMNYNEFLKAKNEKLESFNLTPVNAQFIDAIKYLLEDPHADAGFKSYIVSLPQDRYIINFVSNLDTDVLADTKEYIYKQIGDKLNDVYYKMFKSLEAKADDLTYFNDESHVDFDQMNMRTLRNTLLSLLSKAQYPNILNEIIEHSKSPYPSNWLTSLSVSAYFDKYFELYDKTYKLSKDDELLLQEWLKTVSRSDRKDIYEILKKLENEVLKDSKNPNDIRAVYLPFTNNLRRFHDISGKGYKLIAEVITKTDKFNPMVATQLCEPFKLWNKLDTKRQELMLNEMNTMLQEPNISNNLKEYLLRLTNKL
Briefly: P. falciparum M1AAP inhibitors, biochemical, fluorogenic H-Leu-NHMec substrate, 1536-well (AID 1445). Further details: species or system Plasmodium falciparum 3D7, 3D7.

For another assay, the system named is Streptococcus. Briefly: Group A Streptococcus viability loss, dose response, counter-screen for streptokinase expression inhibitor project, luminescence, BacTiterGlo (AID 1915).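 Note: potency for reduction of bacterial viability or growth.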 The format is functional, organism-based.
For assay [2], the target named is Glycogen synthase kinase-3 alpha (Homo sapiens, UniProt P49840). It is filed as functional.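 Note: GSK3A result taken from a broad kinome-wide kinase panel.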
The target in assay [3] is Mitogen-activated protein kinase kinase kinase kinase 4 (Homo sapiens, UniProt O95819). The format is functional.
Assay [4] has as its target Tyrosine-protein kinase Lck (Homo sapiens, UniProt P06239). The format is functional.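 Note: lck was assayed as one member of a kinase panel.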
Assay [5] concerns the target Inhibitor of nuclear factor kappa-B kinase subunit epsilon (Homo sapiens, UniProt Q14164). Briefly: Navigating the Kinome. Panel member name: IKBKE. The format is functional.
In assay [6] the target is Cyclin-dependent kinase 5 (Homo sapiens, UniProt Q00535). The format is functional.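 Note: CDK5 measured as one member of a kinase profiling panel.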
For another assay, the target named is Activin receptor type-1 (Homo sapiens, UniProt Q04771). Briefly: Navigating the Kinome. Panel member name: ACVR1. The format is functional.
Assay [7] deals with Fibroblast growth factor receptor 1 (Homo sapiens, UniProt P11362). It is filed as functional.
Assay [8] concerns the target Mitogen-activated protein kinase 14 (Homo sapiens, UniProt Q16539). The format is functional.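 Note: part of a kinome-wide panel, MAPK14 entry.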
Assay [9] concerns the target Macrophage colony-stimulating factor 1 receptor (Homo sapiens, UniProt P07333). The format is functional.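 Note: value comes from the Navigating the Kinome screening panel, CSF1R member.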
Assay [10] has as its target cAMP-dependent protein kinase catalytic subunit alpha (Homo sapiens, UniProt P17612). It is filed as functional.
The target of assay [11] is Insulin-like growth factor 1 receptor (Homo sapiens, UniProt P08069). Briefly: Navigating the Kinome. Panel member name: IGF1R. It is filed as functional.
Assay [12] deals with Vascular endothelial growth factor receptor 2 (Homo sapiens, UniProt P35968). It is filed as functional.
Assay [13] concerns the target Casein kinase I isoform alpha (Homo sapiens, UniProt P48729). It is filed as functional.
In assay [14] the target is Protein kinase C theta type (Homo sapiens, UniProt Q04759). Briefly: Navigating the Kinome. Panel member name: PRKCQ. It is filed as functional.
In assay [15] the target is Serine/threonine-protein kinase Chk2 (Homo sapiens, UniProt O96017). It is filed as functional.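 Note: CHEK2 entry within a kinome-wide screening panel.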
The target in assay [16] is Mitogen-activated protein kinase 1 (Homo sapiens, UniProt P28482). It is filed as functional.
Assay [17] addresses Homeodomain-interacting protein kinase 2 (Homo sapiens, UniProt Q9H2X6). The format is functional.
Assay [18] concerns the target Ribosomal protein S6 kinase beta-1 (Homo sapiens, UniProt P23443). It is filed as functional.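 Note: measured as one member of a kinome-wide profiling panel.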
The next assay deals with Misshapen-like kinase 1 (Homo sapiens, UniProt Q8N4C8). The format is functional.
The target of assay [19] is RAC-gamma serine/threonine-protein kinase (Homo sapiens, UniProt Q9Y243). The format is functional.
Assay [20] deals with Serine/threonine-protein kinase 17A (Homo sapiens, UniProt Q9UEE5). It is filed as functional.
The target in assay [21] is Proto-oncogene tyrosine-protein kinase ROS (Homo sapiens, UniProt P08922). It is filed as functional.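 Note: ROS1 tested as one member of a kinome-wide kinase panel.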
In assay [22] the target is Homeodomain-interacting protein kinase 4 (Homo sapiens, UniProt Q8NE63). It is filed as functional.
For assay [23], the target named is Casein kinase II subunit alpha (Homo sapiens, UniProt P68400). The format is functional.
For assay [24], the target named is Proto-oncogene tyrosine-protein kinase Src (Homo sapiens, UniProt P12931). It is filed as functional.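 Note: SRC entry within a kinome-wide kinase profiling panel.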
For assay [25], the target named is cGMP-dependent protein kinase 1 (Homo sapiens, UniProt Q13976). The format is functional.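 Note: value from a kinome panel screen with PRKG1 as the panel member.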
The target of assay [26] is Tyrosine-protein kinase Lyn (Homo sapiens, UniProt P07948). It is filed as functional.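 Note: lyn as one member of a kinase panel.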

Broadly, the IC50 is the concentration at which inhibition is half-maximal. One may read the EC50 as the concentration giving half of the maximal effect. As usually defined, the Ki is a dissociation constant, usually derived from enzyme kinetics or from competition with a known ligand.

The source made the active and inactive calls.

Sequence of Tyrosine-protein kinase Lck (P06239 whole entry): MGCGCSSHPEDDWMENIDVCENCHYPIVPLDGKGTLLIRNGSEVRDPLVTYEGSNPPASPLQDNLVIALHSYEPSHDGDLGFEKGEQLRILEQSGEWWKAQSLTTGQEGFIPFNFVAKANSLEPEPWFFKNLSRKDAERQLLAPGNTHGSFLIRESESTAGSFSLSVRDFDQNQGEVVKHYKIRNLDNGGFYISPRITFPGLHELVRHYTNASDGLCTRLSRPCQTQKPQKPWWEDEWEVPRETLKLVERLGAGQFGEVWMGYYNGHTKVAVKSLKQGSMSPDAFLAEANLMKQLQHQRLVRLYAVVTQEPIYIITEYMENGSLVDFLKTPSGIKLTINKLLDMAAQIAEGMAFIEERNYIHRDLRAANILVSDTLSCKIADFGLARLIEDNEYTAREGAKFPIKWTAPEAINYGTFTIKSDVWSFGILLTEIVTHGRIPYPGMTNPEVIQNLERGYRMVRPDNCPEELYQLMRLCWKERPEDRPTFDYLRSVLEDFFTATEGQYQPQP
Sequence of Glycogen synthase kinase-3 alpha (P49840 whole entry): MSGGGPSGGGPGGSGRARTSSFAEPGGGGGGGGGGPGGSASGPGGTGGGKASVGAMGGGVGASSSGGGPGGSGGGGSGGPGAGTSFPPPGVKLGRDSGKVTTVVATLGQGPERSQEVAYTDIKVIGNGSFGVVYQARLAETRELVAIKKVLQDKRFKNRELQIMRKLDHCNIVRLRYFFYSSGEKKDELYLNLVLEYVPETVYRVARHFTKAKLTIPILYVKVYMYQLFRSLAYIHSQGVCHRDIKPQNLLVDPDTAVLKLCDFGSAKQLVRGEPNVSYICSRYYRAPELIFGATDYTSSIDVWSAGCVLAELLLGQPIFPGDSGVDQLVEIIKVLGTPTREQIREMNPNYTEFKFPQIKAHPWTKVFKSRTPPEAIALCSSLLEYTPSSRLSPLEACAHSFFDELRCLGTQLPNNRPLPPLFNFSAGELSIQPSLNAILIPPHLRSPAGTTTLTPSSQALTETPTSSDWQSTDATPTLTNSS
Sequence of Mitogen-activated protein kinase 14 (Q16539 whole entry): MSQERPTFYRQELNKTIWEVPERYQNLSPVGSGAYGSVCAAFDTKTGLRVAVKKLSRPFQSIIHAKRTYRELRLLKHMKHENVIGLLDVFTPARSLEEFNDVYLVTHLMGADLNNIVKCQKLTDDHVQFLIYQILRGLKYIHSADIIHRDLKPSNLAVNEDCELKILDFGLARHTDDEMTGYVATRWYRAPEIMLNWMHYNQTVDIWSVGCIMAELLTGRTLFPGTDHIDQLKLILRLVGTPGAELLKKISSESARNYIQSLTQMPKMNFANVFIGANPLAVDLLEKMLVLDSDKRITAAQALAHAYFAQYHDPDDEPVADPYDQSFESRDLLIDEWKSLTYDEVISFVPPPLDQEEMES
Sequence of Insulin-like growth factor 1 receptor (P08069 31-736 limits assumed): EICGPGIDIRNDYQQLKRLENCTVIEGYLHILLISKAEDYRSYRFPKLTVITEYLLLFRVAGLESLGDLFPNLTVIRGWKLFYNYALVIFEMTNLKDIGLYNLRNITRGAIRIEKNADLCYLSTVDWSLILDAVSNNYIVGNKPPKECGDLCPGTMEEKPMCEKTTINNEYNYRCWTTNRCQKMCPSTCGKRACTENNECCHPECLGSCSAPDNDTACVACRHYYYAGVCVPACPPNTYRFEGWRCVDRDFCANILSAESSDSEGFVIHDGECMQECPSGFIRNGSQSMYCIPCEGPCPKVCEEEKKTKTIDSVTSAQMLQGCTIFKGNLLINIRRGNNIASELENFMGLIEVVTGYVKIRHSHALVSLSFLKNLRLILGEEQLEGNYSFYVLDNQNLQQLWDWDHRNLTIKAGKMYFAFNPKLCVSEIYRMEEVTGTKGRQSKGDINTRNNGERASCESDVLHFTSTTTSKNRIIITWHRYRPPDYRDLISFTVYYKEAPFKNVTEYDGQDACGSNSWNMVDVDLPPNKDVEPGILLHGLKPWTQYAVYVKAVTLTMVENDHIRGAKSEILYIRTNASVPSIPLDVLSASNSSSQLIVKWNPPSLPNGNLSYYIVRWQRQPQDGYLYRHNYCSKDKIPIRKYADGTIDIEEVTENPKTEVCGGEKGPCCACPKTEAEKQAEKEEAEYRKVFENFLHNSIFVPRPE
Sequence of Insulin-like growth factor 1 receptor (P08069 741-1367 limits assumed): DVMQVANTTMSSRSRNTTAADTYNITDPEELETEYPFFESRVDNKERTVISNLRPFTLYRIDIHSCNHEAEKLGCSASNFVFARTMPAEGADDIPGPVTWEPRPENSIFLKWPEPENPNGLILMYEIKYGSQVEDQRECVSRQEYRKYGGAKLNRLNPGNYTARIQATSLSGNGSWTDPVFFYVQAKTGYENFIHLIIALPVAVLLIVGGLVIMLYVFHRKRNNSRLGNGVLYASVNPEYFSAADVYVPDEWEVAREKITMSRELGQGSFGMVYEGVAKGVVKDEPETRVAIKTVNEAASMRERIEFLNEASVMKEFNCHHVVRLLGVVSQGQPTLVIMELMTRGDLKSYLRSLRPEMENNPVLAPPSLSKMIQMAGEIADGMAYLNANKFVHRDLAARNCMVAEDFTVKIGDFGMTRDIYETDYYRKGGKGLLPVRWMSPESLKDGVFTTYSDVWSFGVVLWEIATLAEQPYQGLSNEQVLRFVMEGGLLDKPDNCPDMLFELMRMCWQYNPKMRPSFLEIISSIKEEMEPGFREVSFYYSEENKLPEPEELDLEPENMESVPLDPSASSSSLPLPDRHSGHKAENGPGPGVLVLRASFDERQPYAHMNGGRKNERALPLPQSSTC
Sequence of Casein kinase I isoform alpha (P48729 whole entry, canonical isoform): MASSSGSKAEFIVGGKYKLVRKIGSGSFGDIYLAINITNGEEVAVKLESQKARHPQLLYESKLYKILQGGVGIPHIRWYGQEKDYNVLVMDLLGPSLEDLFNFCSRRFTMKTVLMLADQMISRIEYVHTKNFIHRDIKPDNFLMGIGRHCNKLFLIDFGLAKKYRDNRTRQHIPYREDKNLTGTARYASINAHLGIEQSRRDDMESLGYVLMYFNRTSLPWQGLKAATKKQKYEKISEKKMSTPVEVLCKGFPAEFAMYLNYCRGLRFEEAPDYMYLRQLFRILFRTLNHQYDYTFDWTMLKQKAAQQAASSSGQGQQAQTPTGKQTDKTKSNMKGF
Sequence of Protein kinase C theta type (Q04759 whole entry): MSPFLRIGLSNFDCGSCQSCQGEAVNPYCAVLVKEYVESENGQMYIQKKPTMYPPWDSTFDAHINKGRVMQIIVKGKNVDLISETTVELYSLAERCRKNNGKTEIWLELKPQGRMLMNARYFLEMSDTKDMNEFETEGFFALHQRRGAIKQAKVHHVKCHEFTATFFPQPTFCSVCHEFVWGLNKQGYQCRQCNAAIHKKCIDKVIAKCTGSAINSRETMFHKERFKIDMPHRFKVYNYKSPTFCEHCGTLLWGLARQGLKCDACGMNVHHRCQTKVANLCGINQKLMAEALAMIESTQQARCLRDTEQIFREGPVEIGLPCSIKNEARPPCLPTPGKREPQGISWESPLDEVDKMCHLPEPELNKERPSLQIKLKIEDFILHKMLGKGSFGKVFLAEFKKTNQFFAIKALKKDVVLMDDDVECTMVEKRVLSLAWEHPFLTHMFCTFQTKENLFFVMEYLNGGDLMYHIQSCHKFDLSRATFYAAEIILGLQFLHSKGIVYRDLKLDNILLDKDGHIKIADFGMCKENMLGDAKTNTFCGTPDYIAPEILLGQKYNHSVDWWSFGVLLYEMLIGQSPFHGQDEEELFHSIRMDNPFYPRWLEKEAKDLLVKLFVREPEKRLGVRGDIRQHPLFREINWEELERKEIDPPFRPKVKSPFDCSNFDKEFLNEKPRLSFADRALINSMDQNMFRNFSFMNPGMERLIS
Sequence of Cyclin-dependent kinase 5 (Q00535 whole entry): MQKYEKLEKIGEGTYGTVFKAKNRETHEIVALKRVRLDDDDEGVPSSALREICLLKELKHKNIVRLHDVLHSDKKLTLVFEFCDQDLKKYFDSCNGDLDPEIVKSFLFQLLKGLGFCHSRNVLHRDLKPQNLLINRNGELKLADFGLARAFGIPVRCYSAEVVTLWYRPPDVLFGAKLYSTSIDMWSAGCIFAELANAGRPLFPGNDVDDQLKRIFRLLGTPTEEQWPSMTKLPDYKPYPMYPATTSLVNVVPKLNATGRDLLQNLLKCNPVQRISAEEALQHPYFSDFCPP
Sequence of Macrophage colony-stimulating factor 1 receptor (P07333 whole entry): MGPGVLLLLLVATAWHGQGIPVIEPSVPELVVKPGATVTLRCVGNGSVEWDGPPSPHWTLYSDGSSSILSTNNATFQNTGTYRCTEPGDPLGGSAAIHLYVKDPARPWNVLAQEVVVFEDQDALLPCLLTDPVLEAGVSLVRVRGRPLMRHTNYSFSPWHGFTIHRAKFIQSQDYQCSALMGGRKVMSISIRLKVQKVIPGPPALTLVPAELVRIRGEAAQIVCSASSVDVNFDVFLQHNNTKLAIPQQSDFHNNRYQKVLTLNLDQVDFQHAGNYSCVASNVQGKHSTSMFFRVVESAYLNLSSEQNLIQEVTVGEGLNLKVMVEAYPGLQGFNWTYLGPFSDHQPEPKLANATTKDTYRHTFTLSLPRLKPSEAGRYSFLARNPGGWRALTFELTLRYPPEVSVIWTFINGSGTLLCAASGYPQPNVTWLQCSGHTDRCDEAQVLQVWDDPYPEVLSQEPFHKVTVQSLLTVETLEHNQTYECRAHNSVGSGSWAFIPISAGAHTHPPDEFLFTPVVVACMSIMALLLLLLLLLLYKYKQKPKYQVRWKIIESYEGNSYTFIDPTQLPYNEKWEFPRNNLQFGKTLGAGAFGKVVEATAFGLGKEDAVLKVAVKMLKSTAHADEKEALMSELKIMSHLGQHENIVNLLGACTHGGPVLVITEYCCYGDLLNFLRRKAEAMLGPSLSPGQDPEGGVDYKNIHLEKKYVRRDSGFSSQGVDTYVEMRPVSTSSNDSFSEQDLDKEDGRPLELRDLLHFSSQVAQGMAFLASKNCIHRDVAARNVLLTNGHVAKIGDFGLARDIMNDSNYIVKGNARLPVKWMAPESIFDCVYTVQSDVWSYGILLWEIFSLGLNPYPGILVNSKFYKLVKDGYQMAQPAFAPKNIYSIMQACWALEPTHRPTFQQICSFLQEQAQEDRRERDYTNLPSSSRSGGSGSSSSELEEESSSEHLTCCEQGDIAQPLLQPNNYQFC

As to `Cc1ccc(NC2=C(NCCO)C(=O)c3ccccc3C2=O)cc1`, in [1], the IC50 is 65.1 µM (inactive).

As to `CC(/C=C1\SC(=S)N(NS(=O)(=O)c2ccc(C)cc2)C1=O)=C\c1ccccc1`, the IC50 on Genome polyprotein is 27.1 µM (active); on Aminopeptidase N it was 64 µM (active). The EC50 in the assay with Streptococcus is 8.34 µM (active).

In the case of `Cc1ccc(C)c(NC(=O)c2cc(-c3ccco3)nc3ccccc23)c1`, the Ki in assay [2] is > 3.98 µM (inactive); in assay [3], > 5.01 µM (inactive); in assay [4], > 6.31 µM (inactive); in assay [5] it was 3.16 µM (active); in assay [6], 1 µM (active); on Activin receptor type-1, 3.16 µM (active). Also, the Ki in [7] was 1.58 µM (active); in [8], > 3.98 µM (inactive).

For `COc1ccc(C2=NNc3cccc4c(OC)ccc2c34)cc1OC`, the Ki in assay [9] was > 2.51 µM (inactive); in assay [10], > 1.26 µM (inactive); in assay [2], > 3.98 µM (inactive); in [3] it was 0.398 µM (active); in [11] it was > 2.51 µM (inactive); in assay [4] it was > 6.31 µM (inactive). The Ki in assay [5] was 0.501 µM (active); in [6], 0.251 µM (active); in assay [12] it was > 2.51 µM (inactive); on Activin receptor type-1, 0.631 µM (active); in assay [7], > 3.98 µM (inactive); in assay [13] it was 0.0126 µM (active). Moreover, the Ki in assay [14] was 1.58 µM (active).

As for `CN1CCC(c2c(O)cc(O)c3c(=O)cc(-c4ccccc4Cl)oc23)C(O)C1` (centres undefined), the Ki is > 2.51 µM (inactive) in assay [9]; > 1.58 µM (inactive) in [15]; > 3.98 µM (inactive) in [10]; > 7.94 µM (inactive) in [16]; > 3.98 µM (inactive) in assay [17]; > 6.31 µM (inactive) in assay [18]. Moreover, the Ki at Misshapen-like kinase 1 was > 7.94 µM (inactive); in [11], > 2 µM (inactive); in assay [19], > 10 µM (inactive); in assay [20], > 3.98 µM (inactive); in assay [21] it was 0.251 µM (active); in assay [22] it was > 7.94 µM (inactive). The Ki in assay [23] is > 6.31 µM (inactive); in [24], > 2 µM (inactive); in assay [13] it was > 5.01 µM (inactive); in assay [25], > 2 µM (inactive); in assay [14], 0.0794 µM (active); in assay [8], 3.98 µM (active). Also, in assay [26], the Ki is > 1.58 µM (inactive).
